From US10562893B2, “Benzimidazoles derivatives as Tec kinases family inhibitors” (GB005, Inc., priority 2015, dated 2020)

Columns and labels:
Human PBMCs = assay: CD3/CD28 mediated PBMC proliferation assay; format: cell-based; conditions: proliferation of human PBMCs stimulated with anti-CD3 and anti-CD28, 72 hours, Cell Titer-Glo
Experimental: Inhibition of cellular ITK was assessed by measuring proliferation of PBMCs following stimulation with anti-CD3 and anti-CD28 antibodies. Individual wells of 96 well tissue culture plates were coated with 50 μL of 5 μg/mL anti-CD3 (OKT3, eBiosciences) for 2 hours at 37° C. Human PBMCs (Stemcell Technologies catalog #70025.3) were plated in 96-well plates at a final concentration of 9.2×10e5 cells/mL in complete media (RPMI, 10% heat inactivated FBS, 55 uM β-mercaptoethanol) and pre-treated with compound curves for 30 minutes at 37° C., 5% CO2. Pre-treated cells plus compounds were transferred to washed anti-CD3 coated plates. Soluble anti-CD28 (CD28.2 eBiosciences) was added to each well at a final concentration of 2 μg/mL. The cells were placed in a humidified 37° C. incubator with 5% CO2 for 72 hours and metabolic viability was measured by quantification of ATP levels with Cell Titer-Glo (Promega catalog # G9242). Controls included unstimulated cells and vehicle alone. EC50 values (50% proliferation in the presence of compound as compared to vehicle treated controls) were calculated from dose response compound curves using GraphPad Prism Software.

[1] = system: Jurkat human acute T cell leukemia cells; assay: Jurkat IL-2 release assay; format: cell-based; conditions: IL-2 release from Jurkat cells stimulated with anti-CD3 and anti-CD28, 48 hours, ELISA
Experimental: Inhibition of cellular ITK was assessed by measuring release of IL-2 following stimulation with anti-CD3 and anti-CD28 antibodies. Individual wells of 96 well tissue culture plates were coated with 50 μL of 10 μg/mL anti-CD3 (OKT3, eBiosciences) for 2 hours at 37° C. Jurkat human acute T cell leukemia cells (ATCC) were plated in 96-well plates at a final concentration of 9.2×10e5 cells/mL in complete media (RPMI, 10% FBS, 1.5 g/L sodium bicarbonate, 10 mM Hepes, 1 mM sodium pyruvate, 4.5 g/L glucose) and pre-treated with compound curves for 30 minutes at 37° C., 5% CO2. Pre-treated cells plus compounds were transferred to washed anti-CD3 coated plates. Soluble anti-CD28 (CD28.2 eBiosciences) was added to each well at a final concentration of 1 μg/mL. The cells were placed in a humidified 37° C. incubator with 5% CO2 for 48 hours and IL-2 release was measured using a commercial ELISA (BD Bioscience catalog #555190). Controls included unstimulated cells and vehicle alone. EC50 values (50% IL-2 release in the presence of compound as compared to vehicle treated controls) were calculated from dose response compound curves using GraphPad Prism Software.

Compound: C=CC(=O)N[C@H]1C[C@@H](n2c(NC(=O)c3ccc(C(F)F)s3)nc3cc(N(C)C(=O)C4CCCCC4)ccc32)C1 [Compound 63]
- EC50 (Human PBMCs): > 100 nM

Compound: C=CC(=O)Nc1cccc(-n2c(NC(=O)c3cccc(Cl)c3)nc3cc(CN[C@@H](C)C(C)(C)C)ccc32)c1 [Compound 15]
- EC50 (Human PBMCs): 10 to 100 nM
- EC50 [1]: 10 to 100 nM

Compound: C=CC(=O)Nc1cccc(-n2c(NC(=O)c3cccc(O)c3)nc3cc(CN[C@@H](C)C(C)(C)C)ccc32)c1 [Compound 26]
- EC50 (Human PBMCs): > 100 nM
- EC50 [1]: 10 to 100 nM

Compound: C=CC(=O)Nc1cccc(-n2c(NC(=O)c3ccc(C(F)F)s3)nc3cc(CNCCCOCCOCCCNC(C)=O)ccc32)c1 [Compound 66]
- EC50 (Human PBMCs): 10 to 100 nM

Compound: C[C@H](NCc1ccc2c(c1)nc(NC(=O)c1ccc(C(F)F)s1)n2-c1cccc(NC(=O)/C=C/CN(C)C)c1)C(C)(C)C [Compound 78]
- EC50 (Human PBMCs): > 100 nM
- EC50 [1]: 10 to 100 nM

Compound: C=CC(=O)N1CCOc2ccc(-n3c(NC(=O)c4ccc(C(F)F)s4)nc4cc(CN[C@@H](C)C(C)(C)C)ccc43)cc21 [Compound 57]
- EC50 (Human PBMCs): 10 to 100 nM
- EC50 [1]: 10 to 100 nM

Compound: C=CC(=O)N[C@H]1C[C@@H](n2c(NC(=O)c3ccc(C(F)F)s3)nc3cc(C(=O)NC4CCCCC4)ccc32)C1 [Compound 70]
- EC50 (Human PBMCs): > 100 nM

Compound: C=CC(=O)Nc1cccc(-n2c(NC(=O)c3ccno3)nc3cc(CN[C@H]4CC[C@H](O)CC4)ccc32)c1 [Compound 74]
- EC50 (Human PBMCs): > 100 nM

Compound: CC#CC(=O)Nc1cccc(-n2c(NC(=O)c3ccc(C(F)F)s3)nc3cc(CN[C@@H](C)C(C)(C)C)ccc32)c1 [Compound 72]
- EC50 (Human PBMCs): > 100 nM
- EC50 [1]: 10 to 100 nM

Compound: C=CC(=O)N(C)c1cccc(-n2c(NC(=O)c3ccc(C(F)F)s3)nc3cc(CN[C@@H](C)C(C)(C)C)ccc32)c1 [Compound 5]
- EC50 (Human PBMCs): 10 to 100 nM
- EC50 [1]: < 10 nM

Compound: C=CC(=O)Nc1cccc(-n2c(NC(=O)c3ccc(C(F)F)s3)nc3cc(CN(C(C)=O)[C@@H](C)C(C)(C)C)ccc32)c1 [Compound 36]
- EC50 (Human PBMCs): 10 to 100 nM
- EC50 [1]: 10 to 100 nM

Compound: C=CC(=O)Nc1cccc(-n2c(NC(=O)c3ccc(C(F)F)s3)nc3cc(CN[C@H](CO)C(C)(C)C)ccc32)c1 [Compound 47]
- EC50 (Human PBMCs): < 10 nM

Compound: C=CC(=O)Nc1cccc(-n2c(NC(=O)c3ccc(C(F)F)s3)nc3cc(CN[C@H]4CC[C@H](OCCOC)CC4)ccc32)c1 [Compound 51]
- EC50 (Human PBMCs): < 10 nM

Compound: C=CC(=O)Nc1cccc(-n2c(NC(=O)c3cccc(F)c3)nc3cc(CN[C@@H](C)C(C)(C)C)ccc32)c1 [Compound 7]
- EC50 (Human PBMCs): 10 to 100 nM
- EC50 [1]: 10 to 100 nM

Compound: C=CC(=O)Nc1cccc(-n2c(NC(=O)c3ccc(F)cc3)nc3cc(CN[C@@H](C)C(C)(C)C)ccc32)c1 [Compound 20]
- EC50 (Human PBMCs): > 100 nM
- EC50 [1]: 10 to 100 nM

Compound: C=CC(=O)Nc1cccc(-n2c(NC(=O)c3ccc(C(F)F)s3)nc3cc(CN4CCC[C@H]4CO)ccc32)c1 [Compound 45]
- EC50 (Human PBMCs): < 10 nM

Compound: C=CC(=O)N(C)[C@H]1CC[C@@H](n2c(NC(=O)c3ccc(C(F)F)s3)nc3cc(CN[C@@H](C)C(C)(C)C)ccc32)CC1 [Compound 58]
- EC50 (Human PBMCs): > 100 nM

Compound: C=CC(=O)Nc1cccc(-n2c(NC(=O)c3cccs3)nc3cc(CN[C@@H](C)C(C)(C)C)ccc32)c1 [Compound 13]
- EC50 (Human PBMCs): 10 to 100 nM
- EC50 [1]: 10 to 100 nM

Compound: C=CC(=O)Nc1cccc(-n2c(NC(=O)c3ccc(C(F)F)s3)nc3cc(N(C)S(C)(=O)=O)ccc32)c1 [Compound 80]
- EC50 (Human PBMCs): 10 to 100 nM
- EC50 [1]: 10 to 100 nM

Compound: C=CC(=O)Nc1cccc(-n2c(NC(=O)c3ccc(C(F)F)s3)nc3cc(CN[C@H]4CC[C@@H](OCCOC)CC4)ccc32)c1 [Compound 60]
- EC50 (Human PBMCs): < 10 nM

Compound: C=CC(=O)Nc1cccc(-n2c(NC(=O)c3ccc(C(F)F)s3)nc3cc(CN[C@H](C)C(C)(C)C)ccc32)c1 [Compound 30]
- EC50 (Human PBMCs): < 10 nM
- EC50 [1]: 10 to 100 nM

Compound: C=CC(=O)Nc1cc(-n2c(NC(=O)c3ccc(C(F)F)s3)nc3cc(CN[C@@H](C)C(C)(C)C)ccc32)ccc1F [Compound 34]
- EC50 (Human PBMCs): > 100 nM
- EC50 [1]: > 100 nM

Compound: C=CC(=O)Nc1cccc(-n2c(NC(=O)c3ccns3)nc3cc(CN[C@H]4CC[C@H](O)CC4)ccc32)c1 [Compound 75]
- EC50 (Human PBMCs): > 100 nM

Compound: C=CC(=O)Nc1cccc(-n2c(NC(=O)c3ccc(C(F)F)s3)nc3cc(CNCC)ccc32)c1 [Compound 40]
- EC50 (Human PBMCs): < 10 nM
- EC50 [1]: 10 to 100 nM

Compound: C=CC(=O)N[C@H]1CC[C@@H](n2c(NC(=O)c3cccnc3)nc3cc(CN[C@@H](C)C(C)(C)C)ccc32)CC1 [Compound 55]
- EC50 (Human PBMCs): > 100 nM

Compound: C=CC(=O)Nc1cccc(-n2c(NC(=O)c3ccc(C(F)F)s3)nc3cc(CN4C[C@@H](C)O[C@@H](C)C4)ccc32)c1 [Compound 61]
- EC50 (Human PBMCs): < 10 nM

Compound: C=CC(=O)Nc1cccc(-n2c(NC(=O)c3cncnc3)nc3cc(CN[C@@H](C)C(C)(C)C)ccc32)c1 [Compound 41]
- EC50 (Human PBMCs): 10 to 100 nM
- EC50 [1]: < 10 nM

Compound: C=CC(=O)Nc1cccc(-n2c(NC(=O)c3ccns3)nc3cc(CN4CCOCC4)ccc32)c1 [Compound 73]
- EC50 (Human PBMCs): 10 to 100 nM
- EC50 [1]: < 10 nM

Compound: C=CC(=O)Nc1ccc(F)c(-n2c(NC(=O)c3ccc(C(F)F)s3)nc3cc(CN[C@@H](C)C(C)(C)C)ccc32)c1 [Compound 33]
- EC50 (Human PBMCs): < 10 nM
- EC50 [1]: < 10 nM

Compound: C=CC(=O)Nc1cccc(-n2c(NC(=O)c3cnn(C)c3)nc3cc(CN[C@@H](C)C(C)(C)C)ccc32)c1 [Compound 49]
- EC50 (Human PBMCs): > 100 nM

Compound: C=CC(=O)N[C@H]1CC[C@@H](n2c(NC(=O)c3ccc(-c4cnco4)s3)nc3cc(CN[C@@H](C)C(C)(C)C)ccc32)CC1 [Compound 71]
- EC50 (Human PBMCs): 10 to 100 nM

Compound: C=C(F)C(=O)Nc1cccc(-n2c(NC(=O)c3ccc(C(F)F)s3)nc3cc(CN[C@@H](C)C(C)(C)C)ccc32)c1 [Compound 84]
- EC50 (Human PBMCs): 10 to 100 nM
- EC50 [1]: 10 to 100 nM

Compound: C=CC(=O)Nc1cccc(-n2c(NC(=O)c3cnc(C(C)C)s3)nc3cc(CN[C@@H](C)C(C)(C)C)ccc32)c1 [Compound 82]
- EC50 [1]: 10 to 100 nM

Compound: C/C=C/C(=O)Nc1cccc(-n2c(NC(=O)c3ccc(C(F)F)s3)nc3cc(CN[C@@H](C)C(C)(C)C)ccc32)c1 [Compound 83]
- EC50 (Human PBMCs): > 100 nM

Compound: C=CC(=O)Nc1cccc(-n2c(NC(=O)c3ccc(C(F)F)s3)nc3cc(CNCCCO)ccc32)c1 [Compound 39]
- EC50 (Human PBMCs): < 10 nM
- EC50 [1]: 10 to 100 nM

Compound: C=CC(=O)Nc1cccc(-n2c(NC(=O)c3ccc(C(F)F)s3)nc3cc(CO)ccc32)c1 [Compound 69]
- EC50 (Human PBMCs): 10 to 100 nM

Compound: C=CC(=O)Nc1cccc(-n2c(NC(=O)c3ccc(C(F)F)s3)nc3cc(OCc4ccccc4)ccc32)c1 [Compound 79]
- EC50 (Human PBMCs): > 100 nM

Compound: C=CC(=O)N[C@H]1C[C@@H](n2c(NC(=O)c3ccc(C(F)F)s3)nc3cc(NC(=O)C4CCCCC4)ccc32)C1 [Compound 64]
- EC50 (Human PBMCs): > 100 nM

Compound: C=CC(=O)Nc1cccc(-n2c(NC(=O)c3ccc(C(F)F)s3)nc3cc(C(=O)NC4CCCCC4)ccc32)c1 [Compound 53]
- EC50 (Human PBMCs): 10 to 100 nM

Compound: C=CC(=O)Nc1cccc(-n2c(NC(=O)c3ccc(C(F)F)s3)nc3cc(CNCCOCCOC)ccc32)c1 [Compound 46]
- EC50 (Human PBMCs): 10 to 100 nM

Compound: C=CC(=O)N[C@H]1C[C@@H](n2c(NC(=O)c3ccc(C(F)F)s3)nc3cc(C(=O)N(C)C4CCCCC4)ccc32)C1 [Compound 65]
- EC50 (Human PBMCs): > 100 nM

Compound: C=CC(=O)N1CCc2ccc(-n3c(NC(=O)c4ccc(C(F)F)s4)nc4cc(CN[C@@H](C)C(C)(C)C)ccc43)cc21 [Compound 56]
- EC50 (Human PBMCs): 10 to 100 nM

Compound: C=CC(=O)Nc1cccc(-n2c(NC(=O)c3ccc(C(F)F)s3)nc3cc(C(=O)N(C)C4CCCCC4)ccc32)c1 [Compound 48]
- EC50 (Human PBMCs): 10 to 100 nM

Compound: C=CC(=O)Nc1cccc(-n2c(NC(=O)c3ccc(C(F)F)s3)nc3cc(CN4CCC[C@@H]4CO)ccc32)c1 [Compound 44]
- EC50 (Human PBMCs): < 10 nM
